One assay concerns the target GLP-1 receptor (Homo sapiens, UniProt P43220). Put plainly: HitHunter cAMP assay, GLP-1 receptor. Conditions: read-out: Emax GLP-1R. In kind it is cell-based.
The target of a further assay is T1, GIP receptor (Homo sapiens, UniProt P48546).
T1 sequence (P48546 22-466): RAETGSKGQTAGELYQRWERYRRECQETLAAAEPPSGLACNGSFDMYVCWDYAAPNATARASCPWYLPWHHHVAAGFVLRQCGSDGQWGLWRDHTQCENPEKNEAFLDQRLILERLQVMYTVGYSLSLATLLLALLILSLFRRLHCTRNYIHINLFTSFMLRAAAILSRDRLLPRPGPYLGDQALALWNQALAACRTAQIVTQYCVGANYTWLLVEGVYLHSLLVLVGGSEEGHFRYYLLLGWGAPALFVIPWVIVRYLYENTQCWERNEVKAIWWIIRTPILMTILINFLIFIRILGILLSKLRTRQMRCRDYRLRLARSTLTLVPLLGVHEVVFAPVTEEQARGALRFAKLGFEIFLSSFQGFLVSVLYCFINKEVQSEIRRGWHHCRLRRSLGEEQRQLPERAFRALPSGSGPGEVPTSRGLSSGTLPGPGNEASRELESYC
The experiment in a line: HitHunter cAMP assay, GIP receptor. It counts as cell-based. Conditions: read-out: Emax GIP-1R.

The mark [1] stands for this setting: CHO cells, cAMP, normalized to maximum signal from GLP-1 (high) and DMSO (low).
Setting [2] is: CHO cells, cAMP, normalized to maximum signal from GIP (high) and DMSO (low).

SMILES strings stand for the structures. Where two headings read alike, the source gives them in different places. *1 amine or outer side, *2 acyl side, *3 side chain or, on linkers, in order; H or OH if unused. Where a SMILES comes first, the peptide text is derived from it. Side-chain parts run from the residue outwards. [ ]: non-standard residue; d: D form. The star is where a group is joined. Isobutyryl(2-(3-CN-5-F-Ph)) = CC(C)(C(=O)*)c1cc(F)cc(C#N)c1; C20 diacid = O=C(O)CCCCCCCCCCCCCCCCCCC(=O)*; αMePhe(2-F) = C[C@](N)(Cc1ccccc1F)C(=O)O; γGlu = O=C(O)[C@H](CCC(=O)[*:2])N[*:1]; X60 = O=C(C1(c2cccnc2)CCCC1)*; X83 = Cc1ccn(C(C)(C)C(=O)*)n1; NH(3-MeOPh) = COc1cccc(N*)c1; NH(2-ClPh) = Clc1ccccc1N*; AEEA = NCCOCCOCC(=O)O; Aib = CC(C)(N)C(=O)O; CO = O=C([*:1])[*:2]; X12 = Fc1cccc(N*)c1; GABA = NCCCC(=O)O; βAla = NCCC(=O)O

GLP-1 receptor, sequence (P43220 24-463): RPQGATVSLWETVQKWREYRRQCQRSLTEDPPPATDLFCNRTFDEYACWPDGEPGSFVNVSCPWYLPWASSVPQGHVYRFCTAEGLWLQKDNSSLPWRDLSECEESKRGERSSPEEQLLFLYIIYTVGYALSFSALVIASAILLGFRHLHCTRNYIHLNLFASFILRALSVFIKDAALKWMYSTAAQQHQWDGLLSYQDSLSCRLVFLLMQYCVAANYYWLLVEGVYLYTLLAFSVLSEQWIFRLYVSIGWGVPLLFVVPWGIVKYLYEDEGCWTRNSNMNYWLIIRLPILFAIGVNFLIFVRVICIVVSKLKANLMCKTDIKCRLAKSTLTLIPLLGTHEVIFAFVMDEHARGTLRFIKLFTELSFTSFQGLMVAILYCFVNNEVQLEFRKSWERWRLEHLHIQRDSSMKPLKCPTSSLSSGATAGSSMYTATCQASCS

Turning to `CC[C@H](C)[C@H](NC(=O)[C@H](CC(C)C)NC(=O)[C@H](Cc1c[nH]c2ccccc12)NC(=O)[C@H](CCC(N)=O)NC(=O)[C@@H](NC(=O)[C@H](Cc1ccccc1)NC(=O)[C@H](C)NC(=O)[C@H](CCCCNC(=O)COCCOCCNC(=O)COCCOCCNC(=O)CC[C@H](NC(=O)CCCCCCCCCCCCCCCCCCC(=O)O)C(=O)O)NC(=O)[C@H](CCC(N)=O)NC(=O)[C@H](C)NC(=O)[C@@H](NC(=O)[C@H](CCCCN)NC(=O)[C@H](CC(=O)O)NC(=O)[C@H](CC(C)C)NC(=O)C(C)(C)NC(=O)[C@@H](NC(=O)[C@H](CO)NC(=O)[C@H](Cc1ccc(O)cc1)NC(=O)[C@H](CC(=O)O)NC(=O)[C@H](CO)NC(=O)[C@@H](NC(=O)[C@](C)(Cc1ccccc1F)NC(=O)[C@@H](NC(=O)CNC(=O)[C@H](CCC(=O)O)NC(=O)CCNC(=O)C(C)(C)c1cc(F)cc(C#N)c1)[C@@H](C)O)[C@@H](C)O)[C@@H](C)CC)[C@@H](C)CC)C(C)C)C(=O)N[C@@H](C)C(=O)NCC(N)=O` [Compound 228] ({Isobutyryl(2-(3-CN-5-F-Ph))-βAla}-EGT[αMePhe(2-F)]TSDYSI[Aib]LDKIAQK([AEEA-AEEA-γGlu-C20 diacid])AFVQWLIAG-NH2; N-terminus and C-terminus assumed), the Emax on GLP-1 receptor (setting [1]) was determined as 100%; at GIP receptor (setting [2]) it was 105%.
In the same order, the values of `CC[C@H](C)[C@H](NC(=O)[C@H](CC(C)C)NC(=O)[C@H](Cc1c[nH]c2ccccc12)NC(=O)[C@H](CCC(N)=O)NC(=O)[C@@H](NC(=O)[C@H](Cc1ccccc1)NC(=O)[C@H](C)NC(=O)[C@H](CCCCNC(=O)COCCOCCNC(=O)COCCOCCNC(=O)CC[C@H](NC(=O)CCCCCCCCCCCCCCCCCCC(=O)O)C(=O)O)NC(=O)[C@H](CCC(N)=O)NC(=O)[C@H](C)NC(=O)[C@@H](NC(=O)[C@H](CCCNC(=N)N)NC(=O)[C@H](CC(=O)O)NC(=O)[C@H](CC(C)C)NC(=O)C(C)(C)NC(=O)[C@@H](NC(=O)[C@H](CO)NC(=O)[C@H](Cc1ccc(O)cc1)NC(=O)[C@H](CC(=O)O)NC(=O)[C@H](CO)NC(=O)[C@@H](NC(=O)[C@H](Cc1ccccc1)NC(=O)[C@@H](NC(=O)CNC(=O)[C@H](CCC(=O)O)NC(=O)CCNC(=O)C1(c2cccnc2)CCCC1)[C@@H](C)O)[C@@H](C)O)[C@@H](C)CC)[C@@H](C)CC)C(C)C)C(=O)N[C@@H](C)C(=O)NCC(=O)NCC(=O)N1CCC[C@H]1C(=O)N[C@@H](CO)C(=O)N[C@@H](CO)C(=O)NCC(=O)N[C@@H](C)C(=O)N1CCC[C@H]1C(=O)N1CCC[C@H]1C(=O)N1CCC[C@H]1C(=O)N[C@@H](CO)C(N)=O` [Compound 243] ({X60-βAla}-EGTFTSDYSI[Aib]LDRIAQK([AEEA-AEEA-γGlu-C20 diacid])AFVQWLIAGGPSSGAPPPS-NH2; C-terminus assumed) are 109% and 110%.
In the same order, the values of `CC[C@H](C)[C@H](NC(=O)[C@H](CC(C)C)NC(=O)[C@H](Cc1c[nH]c2ccccc12)NC(=O)[C@H](CCC(N)=O)NC(=O)[C@@H](NC(=O)[C@H](Cc1ccccc1)NC(=O)[C@H](C)NC(=O)[C@H](CCCCNC(=O)COCCOCCNC(=O)COCCOCCNC(=O)CC[C@H](NC(=O)CCCCCCCCCCCCCCCCCCC(=O)O)C(=O)O)NC(=O)[C@H](CCC(N)=O)NC(=O)[C@H](C)NC(=O)[C@@H](NC(=O)[C@H](CCCCN)NC(=O)[C@H](CC(=O)O)NC(=O)[C@H](CC(C)C)NC(=O)C(C)(C)NC(=O)[C@@H](NC(=O)[C@H](CO)NC(=O)[C@H](Cc1ccc(O)cc1)NC(=O)[C@H](CC(=O)O)NC(=O)[C@H](CO)NC(=O)[C@@H](NC(=O)[C@H](Cc1ccccc1)NC(=O)[C@@H](NC(=O)CNC(=O)[C@H](CCC(=O)O)NC(=O)CCCNC(=O)CNC(=O)Nc1cccc(F)c1)[C@@H](C)O)[C@@H](C)O)[C@@H](C)CC)[C@@H](C)CC)C(C)C)C(=O)N[C@@H](C)C(=O)NCC(=O)NCC(=O)N1CCC[C@H]1C(=O)N[C@@H](CO)C(=O)N[C@@H](CO)C(=O)NCC(=O)N[C@@H](C)C(=O)N1CCC[C@H]1C(=O)N1CCC[C@H]1C(=O)N1CCC[C@H]1C(=O)N[C@@H](CO)C(N)=O` [Compound 260] ({X12-CO}-G[GABA]EGTFTSDYSI[Aib]LDKIAQK([AEEA-AEEA-γGlu-C20 diacid])AFVQWLIAGGPSSGAPPPS-NH2; C-terminus assumed) are 124% and 107%.
Take `CC[C@H](C)[C@H](NC(=O)[C@H](CC(C)C)NC(=O)[C@H](Cc1c[nH]c2ccccc12)NC(=O)[C@H](CCC(N)=O)NC(=O)[C@@H](NC(=O)[C@H](Cc1ccccc1)NC(=O)[C@H](C)NC(=O)[C@H](CCCCNC(=O)COCCOCCNC(=O)COCCOCCNC(=O)CC[C@H](NC(=O)CCCCCCCCCCCCCCCCCCC(=O)O)C(=O)O)NC(=O)[C@H](CCC(N)=O)NC(=O)[C@H](C)NC(=O)[C@@H](NC(=O)[C@H](CCCCN)NC(=O)[C@H](CC(=O)O)NC(=O)[C@H](CC(C)C)NC(=O)C(C)(C)NC(=O)[C@@H](NC(=O)[C@H](CO)NC(=O)[C@H](Cc1ccc(O)cc1)NC(=O)[C@H](CC(=O)O)NC(=O)[C@H](CO)NC(=O)[C@@H](NC(=O)[C@H](Cc1ccccc1)NC(=O)[C@@H](NC(=O)CNC(=O)[C@H](CCC(=O)O)NC(=O)CCCNC(=O)CNC(=O)Nc1ccccc1Cl)[C@@H](C)O)[C@@H](C)O)[C@@H](C)CC)[C@@H](C)CC)C(C)C)C(=O)N[C@@H](C)C(=O)NCC(=O)NCC(=O)N1CCC[C@H]1C(=O)N[C@@H](CO)C(=O)N[C@@H](CO)C(=O)NCC(=O)N[C@@H](C)C(=O)N1CCC[C@H]1C(=O)N1CCC[C@H]1C(=O)N1CCC[C@H]1C(=O)N[C@@H](CO)C(N)=O` [Compound 259] ({NH(2-ClPh)-CO}-G[GABA]EGTFTSDYSI[Aib]LDKIAQK([AEEA-AEEA-γGlu-C20 diacid])AFVQWLIAGGPSSGAPPPS-NH2; C-terminus assumed): the Emax on GLP-1 receptor (CHO) and on GIP receptor (CHO) was 103% each time.
`CC[C@H](C)[C@H](NC(=O)[C@H](CC(C)C)NC(=O)[C@H](Cc1c[nH]c2ccccc12)NC(=O)[C@H](CCC(N)=O)NC(=O)[C@@H](NC(=O)[C@H](Cc1ccccc1)NC(=O)[C@H](C)NC(=O)[C@H](CCCCNC(=O)COCCOCCNC(=O)COCCOCCNC(=O)CC[C@H](NC(=O)CCCCCCCCCCCCCCCCCCC(=O)O)C(=O)O)NC(=O)[C@H](CCC(N)=O)NC(=O)[C@H](C)NC(=O)[C@@H](NC(=O)[C@H](CCCCN)NC(=O)[C@H](CC(=O)O)NC(=O)[C@H](CC(C)C)NC(=O)C(C)(C)NC(=O)[C@@H](NC(=O)[C@H](CO)NC(=O)[C@H](Cc1ccc(O)cc1)NC(=O)[C@H](CC(=O)O)NC(=O)[C@H](CO)NC(=O)[C@@H](NC(=O)[C@H](Cc1ccccc1)NC(=O)[C@@H](NC(=O)CNC(=O)[C@H](CCC(=O)O)NC(=O)CCCNC(=O)C(C)(C)n1ccc(C)n1)[C@@H](C)O)[C@@H](C)O)[C@@H](C)CC)[C@@H](C)CC)C(C)C)C(=O)N[C@@H](C)C(=O)NCC(=O)NCC(=O)N1CCC[C@H]1C(=O)N[C@@H](CO)C(=O)N[C@@H](CO)C(=O)NCC(=O)N[C@@H](C)C(=O)N1CCC[C@H]1C(=O)N1CCC[C@H]1C(=O)N1CCC[C@H]1C(=O)N[C@@H](CO)C(N)=O` [Compound 252] ({X83-GABA}-EGTFTSDYSI[Aib]LDKIAQK([AEEA-AEEA-γGlu-C20 diacid])AFVQWLIAGGPSSGAPPPS-NH2; C-terminus assumed): the results for the Emax on GLP-1 receptor (setting [1]) and at GIP receptor (setting [2]) were 90% and 100%, respectively.
In the same order, the values of `CC[C@H](C)[C@H](NC(=O)[C@H](CC(C)C)NC(=O)[C@H](Cc1c[nH]c2ccccc12)NC(=O)[C@H](CCC(N)=O)NC(=O)[C@@H](NC(=O)[C@H](Cc1ccccc1)NC(=O)[C@H](C)NC(=O)[C@H](CCCCNC(=O)COCCOCCNC(=O)COCCOCCNC(=O)CC[C@H](NC(=O)CCCCCCCCCCCCCCCCCCC(=O)O)C(=O)O)NC(=O)[C@H](CCC(N)=O)NC(=O)[C@H](C)NC(=O)[C@@H](NC(=O)[C@H](CCCCN)NC(=O)[C@H](CC(=O)O)NC(=O)[C@H](CC(C)C)NC(=O)C(C)(C)NC(=O)[C@@H](NC(=O)[C@H](CO)NC(=O)[C@H](Cc1ccc(O)cc1)NC(=O)[C@H](CC(=O)O)NC(=O)[C@H](CO)NC(=O)[C@@H](NC(=O)[C@H](Cc1ccccc1)NC(=O)[C@@H](NC(=O)CNC(=O)[C@H](CCC(=O)O)NC(=O)CCCNC(=O)CNC(=O)Nc1cccc(OC)c1)[C@@H](C)O)[C@@H](C)O)[C@@H](C)CC)[C@@H](C)CC)C(C)C)C(=O)N[C@@H](C)C(=O)NCC(=O)NCC(=O)N1CCC[C@H]1C(=O)N[C@@H](CO)C(=O)N[C@@H](CO)C(=O)NCC(=O)N[C@@H](C)C(=O)N1CCC[C@H]1C(=O)N1CCC[C@H]1C(=O)N1CCC[C@H]1C(=O)N[C@@H](CO)C(N)=O` [Compound 261] ({NH(3-MeOPh)-CO}-G[GABA]EGTFTSDYSI[Aib]LDKIAQK([AEEA-AEEA-γGlu-C20 diacid])AFVQWLIAGGPSSGAPPPS-NH2; C-terminus assumed) are 106% and 107%.
